We go through 47 molecules from the Kinase Knowledgebase extract (Sharma et al. 2016).

In brackets after ≈: the same amount, converted by molar mass.

The target in this test is EGFR (UniProt P00533).
EGFR, sequence (P00533 whole entry, looked up): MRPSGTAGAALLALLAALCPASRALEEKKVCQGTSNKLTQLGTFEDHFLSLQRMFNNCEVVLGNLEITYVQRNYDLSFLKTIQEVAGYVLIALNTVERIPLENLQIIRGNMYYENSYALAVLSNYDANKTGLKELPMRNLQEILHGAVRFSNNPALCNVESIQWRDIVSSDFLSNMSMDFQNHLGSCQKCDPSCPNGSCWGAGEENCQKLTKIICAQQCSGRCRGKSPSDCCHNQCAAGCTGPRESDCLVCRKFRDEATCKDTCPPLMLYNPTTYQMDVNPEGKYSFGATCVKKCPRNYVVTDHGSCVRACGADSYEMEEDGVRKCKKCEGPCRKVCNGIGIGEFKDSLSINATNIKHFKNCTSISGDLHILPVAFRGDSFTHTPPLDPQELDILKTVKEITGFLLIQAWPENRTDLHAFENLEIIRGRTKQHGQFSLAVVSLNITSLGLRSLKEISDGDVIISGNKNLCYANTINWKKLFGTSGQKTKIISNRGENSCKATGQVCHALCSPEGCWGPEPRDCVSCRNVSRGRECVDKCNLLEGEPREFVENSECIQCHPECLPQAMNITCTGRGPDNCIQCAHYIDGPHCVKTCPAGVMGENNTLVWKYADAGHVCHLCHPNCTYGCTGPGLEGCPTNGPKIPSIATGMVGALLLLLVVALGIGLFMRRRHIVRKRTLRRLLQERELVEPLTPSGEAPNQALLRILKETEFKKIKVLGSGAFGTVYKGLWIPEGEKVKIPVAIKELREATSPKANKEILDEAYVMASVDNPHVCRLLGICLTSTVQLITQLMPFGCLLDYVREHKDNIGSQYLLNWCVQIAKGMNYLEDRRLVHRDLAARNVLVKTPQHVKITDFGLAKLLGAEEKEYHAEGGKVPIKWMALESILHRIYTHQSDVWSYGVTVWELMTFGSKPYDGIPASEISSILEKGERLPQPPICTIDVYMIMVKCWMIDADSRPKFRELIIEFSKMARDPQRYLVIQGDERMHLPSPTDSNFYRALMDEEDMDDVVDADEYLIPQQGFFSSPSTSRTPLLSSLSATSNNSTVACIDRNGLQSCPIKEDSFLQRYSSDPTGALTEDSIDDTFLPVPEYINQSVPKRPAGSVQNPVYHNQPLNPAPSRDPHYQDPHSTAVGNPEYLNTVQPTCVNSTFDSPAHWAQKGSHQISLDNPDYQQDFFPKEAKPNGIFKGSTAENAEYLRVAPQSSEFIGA
`COc1cc(Nc2ncnc(Nc3ncncn3)n2)cc(OC)c1OC`: the IC50 (commonly the midpoint of a concentration-inhibition curve) is above 4.5 µg/mL.
In the case of `CN(c1cccc(Cl)c1)c1ncnc(Nc2ccc(OC(F)(F)F)cc2)n1`, the IC50 was 0.4 to 2.4 µg/mL (≈ 1.01 to 6.06 µM).
Then `COc1cc(Nc2ncnc(N[C@@H]3CCCc4ccccc43)n2)cc(OC)c1OC`, with 0.4 to 2.4 µg/mL (≈ 0.982 to 5.89 µM); and `COc1cc(Nc2ncnc(-n3c(Nc4ccc(Cl)cc4)nc4ccccc43)n2)cc(OC)c1OC`, with above 4.5 µg/mL; and `COC(=O)c1ccc(-c2cc(Nc3ncnc(NCCc4c[nH]c5ccccc45)n3)[nH]n2)cc1`, with 0.4 to 2.4 µg/mL (≈ 0.88 to 5.28 µM).
Molecule `O=c1[nH]c2ccccc2n1-c1ncnc(Nc2cccc3cccnc23)n1` gave an IC50 above 4.5 µg/mL.
In the case of `COc1ccc(Nc2ncnc(NCc3cccc(Cl)c3)n2)cc1OC`, the IC50 fell in the range of 0.4 to 2.4 µg/mL (≈ 1.08 to 6.45 µM).
In the case of `COc1cc(Nc2ncnc(-n3c(NCc4cccc(F)c4)nc4ccccc43)n2)cc(OC)c1OC` it was 3.5 to 4.5 µg/mL (≈ 6.98 to 8.97 µM); in that of `COc1cc(Nc2ncnc(-n3cc(OC(C)=O)c4ccccc43)n2)cc(OC)c1OC`, above 4.5 µg/mL; in that of `COc1ccc(Nc2ncnc(NCc3ccc(C)c(Cl)c3)n2)cc1OC`, above 4.5 µg/mL.
In the case of `Nc1ncnc(Nc2ccc3c(c2)OCO3)n1` it was 3.5 to 4.5 µg/mL (≈ 15.1 to 19.5 µM); in that of `c1ccc(CNc2ncnc(Nc3cc(-c4ccco4)n[nH]3)n2)nc1`, 0.4 to 2.4 µg/mL (≈ 1.2 to 7.18 µM); in that of `CCC(O)CNc1ncnc(Nc2ccc(OC)c(OC)c2)n1` (configuration not stated), above 4.5 µg/mL.
With `COc1ccc(Nc2ncnc(N(C)c3ccc(S(=O)(=O)O)cc3)n2)cc1OC`, the IC50 was above 4.5 µg/mL.
In the case of `COc1cc(Nc2ncnc(-c3cccnc3Nc3cccc(C(C)=O)c3)n2)cc(OC)c1OC` it was above 4.5 µg/mL; in that of `COc1ccc(CNc2nc3ccccc3n2-c2ncnc(Nc3cc(OC)c(OC)c(OC)c3)n2)cc1`, above 4.5 µg/mL; in that of `COc1cc(Nc2ncnc(-n3c(NCc4nccs4)nc4ccccc43)n2)cc(OC)c1OC`, 2.4 to 3.5 µg/mL (≈ 4.89 to 7.13 µM).
In turn, `c1ccc(CNc2ncccc2-c2ncnc(Nc3ccc(N4CCOCC4)cc3)n2)cc1` returned an IC50 above 4.5 µg/mL.
In turn, `COc1cc(Nc2ncnc(-n3c(NC4c5ccccc5CC4O)nc4ccccc43)n2)cc(OC)c1OC` (configuration not stated) gave an IC50 above 4.5 µg/mL.
Then `COc1cc(Nc2ncnc(NC(=O)Nc3ccccc3)n2)cc(OC)c1OC`, with above 4.5 µg/mL.
`COc1cc(Nc2ncnc(-c3cccnc3NC3CCCCC3)n2)cc(OC)c1OC` yielded an IC50 above 4.5 µg/mL.
`Nc1nc2ccccc2n1-c1ncnc(Nc2ccc(-c3cnco3)cc2)n1` registered an IC50 of 0.4 to 2.4 µg/mL (≈ 1.08 to 6.48 µM).
For the molecule `COc1cc(Nc2ncnc(Nc3cccc(C(=O)O)c3)n2)cc(OC)c1OC`, the IC50 is below 0.4 µg/mL.
For the molecule `C=CCNc1cc(-c2ncnc(Nc3cc(OC)c(OC)c(OC)c3)n2)ccn1`, the IC50 is above 4.5 µg/mL.
In turn, `COc1cc(Nc2ncnc(Nc3cc(OC)c(OC)c(OC)c3)n2)ccc1OCCN1CCOCC1` returned an IC50 of 0.4 to 2.4 µg/mL (≈ 0.78 to 4.68 µM).
`COc1cc(Nc2ncnc(Nc3cc(-c4cccc(C)c4)n[nH]3)n2)cc(OC)c1OC`: the IC50 is 0.4 to 2.4 µg/mL (≈ 0.923 to 5.54 µM).
Molecule `COc1cc(Nc2ncnc(Nc3cccc4ccccc34)n2)cc(OC)c1OC` returned an IC50 below 0.4 µg/mL.
Molecule `COc1cc(Nc2ncnc(-c3cccnc3Nc3cccc(Oc4ccccc4)c3)n2)cc(OC)c1OC` had an IC50 above 4.5 µg/mL.
Turning to `COc1cc(Nc2ncnc(-c3cccnc3Nc3cccc(OCc4ccccc4)c3)n2)cc(OC)c1OC`, the IC50 was 3.5 to 4.5 µg/mL (≈ 6.52 to 8.39 µM).
Turning to `COc1ccc(-c2cn[nH]c2Nc2ncnc(Nc3cc(OC)c(OC)c(OC)c3)n2)cc1OC`, the IC50 was in the range of 3.5 to 4.5 µg/mL (≈ 7.3 to 9.38 µM).
For the molecule `COc1cc(Nc2ncnc(-c3ccc(NCc4ccccc4)nc3)n2)cc(OC)c1OC`, the IC50 was above 4.5 µg/mL.
Then `COc1cc(Nc2ncnc(-n3c(NCc4nc5ccccc5[nH]4)nc4ccccc43)n2)cc(OC)c1OC`, with above 4.5 µg/mL; and `O=c1[nH]c2ccccc2n1-c1ncnc(Nc2cc(Cl)cc(Cl)c2)n1`, with above 4.5 µg/mL; and `Nc1nc2ccccc2n1-c1ncnc(Nc2cccc(Cn3ccnn3)c2)n1`, with 2.4 to 3.5 µg/mL (≈ 6.24 to 9.1 µM).
Consider `COCCOc1ccc(Nc2ncnc(-n3c(N)nc4ccccc43)n2)cc1OCCOC`, for which the IC50 was above 4.5 µg/mL.
`COc1cc(Nc2ncnc(Nc3cc(OC)c(OC)c(OC)c3)n2)cc(OC)c1`: the IC50 was above 4.5 µg/mL.
In the case of `Fc1cccc(Nc2ncnc(-c3cccs3)n2)c1`, the IC50 is above 4.5 µg/mL.
In the case of `Nc1nc2ccccc2n1-c1ncnc(Nc2cccc(CC(=O)O)c2)n1` it was above 4.5 µg/mL; in that of `CCc1cccc(Nc2ncnc(-n3c(N)nc4ccccc43)n2)c1`, 0.4 to 2.4 µg/mL (≈ 1.21 to 7.24 µM); in that of `CCOc1ccc(Nc2ncnc(N(C)c3cccc(Cl)c3)n2)cc1OCC`, below 0.4 µg/mL.
With `COc1cc(Nc2ncnc(N(C)c3cccc(Cl)c3)n2)cc(OC)c1`, the IC50 is below 0.4 µg/mL.
Turning to `COc1cc(Nc2ncnc(Nc3ccccc3)n2)cc(OC)c1OC`, the IC50 was 0.4 to 2.4 µg/mL (≈ 1.13 to 6.79 µM).
Take `C=CCNc1nc2ccccc2n1-c1ncnc(Nc2cc(OC)c(OC)c(OC)c2)n1`: the IC50 was above 4.5 µg/mL.
With `COc1ccc(Nc2ncnc(N(C)c3ccc(Cl)cc3)n2)cc1OC`, the IC50 is below 0.4 µg/mL.
The molecule `CN(c1ccc2c(cnn2Cc2ccccc2)c1)c1ncnc(Nc2cccc(Cn3ccnn3)c2)n1` registered an IC50 below 0.4 µg/mL.
`COc1cc(Nc2ncnc(-n3c(NCc4cccnc4)nc4ccccc43)n2)cc(OC)c1OC` came in with an IC50 above 4.5 µg/mL.
As for `COc1cc(Nc2ncnc(-c3ccsc3)n2)cc(OC)c1OC`, the IC50 is above 4.5 µg/mL.
